From US20090209615A1, “INHIBITORS OF MATRIX METALLOPROTEINASES TO TREAT NEUROLOGICAL DISORDERS” (priority 2004, published 2009)
Entries after “also recorded” stand apart in the source; their conditions may differ. Read-outs that look alike come from different tables or passages of the source.

Legend:
R-proMMP-9 = R-proMMP-9 (Homo sapiens, UniProt P14780); experiment: Activation of R-proMMP-9 in vitro (gelatin zymography, fluorogenic peptide cleavage)
cerebrocortical neurons = experiment: Neuronal apoptosis induced by SNOC-activated MMP-9 in cerebrocortical cultures; type: cell-based; settings: R-proMMP-9 pre-activated by SNOC, 18 hours
[1] = tested on: MMP gelatinolytic activity in the ischemic cortex; experiment: In situ zymography of ischemic brain sections treated with MMP inhibitors; type: biochemical, mouse; settings: brain sections after MCA occlusion/reperfusion treated with inhibitor
Method: In situ zymography with the MMP fluorogenic substrate DQ-gelatin-FITC (Molecular Probes) was performed on fresh cryostat sections of mouse brains harvested after MCA ischemia and reperfusion (A to J). […] A, C, E, and G represent fluorogenic substrate (green), reflecting MMP activity in situ. B, D, F, H, I, and J are merged images of the fluorogenic substrate and Hoechst dye counterstaining to identify nuclei.
A, In situ zymography with the MMP fluorogenic substrate DQ-gel (green in top panels) merged with nuclear DNA staining by Hoechst dye (blue plus green in bottom panels).

MMP-9 [2] = biological target: T1, MMP-9 (Homo sapiens, UniProt P14780); experiment: Ex vivo degradation of neuronal laminin by exogenous MMP-9 in mouse-brain sections; type: biochemical
Target sequence in this assay (P14780 107-707 limits assumed, species assumed): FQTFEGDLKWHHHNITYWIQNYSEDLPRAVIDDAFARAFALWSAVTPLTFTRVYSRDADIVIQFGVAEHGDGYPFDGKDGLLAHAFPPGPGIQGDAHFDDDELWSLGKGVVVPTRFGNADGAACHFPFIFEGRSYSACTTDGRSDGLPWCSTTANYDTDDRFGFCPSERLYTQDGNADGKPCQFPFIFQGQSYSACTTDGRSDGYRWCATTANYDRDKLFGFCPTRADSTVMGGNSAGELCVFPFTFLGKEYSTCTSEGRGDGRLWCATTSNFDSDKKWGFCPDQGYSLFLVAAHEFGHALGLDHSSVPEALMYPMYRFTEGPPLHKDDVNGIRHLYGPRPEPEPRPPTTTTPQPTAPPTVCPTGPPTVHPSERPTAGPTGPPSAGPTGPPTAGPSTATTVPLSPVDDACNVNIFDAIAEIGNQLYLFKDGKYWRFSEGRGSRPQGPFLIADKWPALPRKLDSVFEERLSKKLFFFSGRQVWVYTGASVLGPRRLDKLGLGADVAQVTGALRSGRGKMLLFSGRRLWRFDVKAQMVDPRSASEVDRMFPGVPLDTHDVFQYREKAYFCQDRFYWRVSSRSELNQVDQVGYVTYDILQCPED
Method: Purified mouse Engelbreth-Holm-Swarm laminin (ms EHS Ln) served as a molecular marker for laminin immunoblotting. The membrane was reblotted with anti-actin antibody to ensure equal protein loading in each lane.
Ex vivo laminin degradation and Western blots. Brain lysates (50 mg of total protein in TBS with 0.05% Brij 35) were incubated overnight at 37° C. with activated MMP-9, latent preform of MMP-9 (proMMP-9), or the catalytic domain of membrane type 1 (MT1)-MMP. […] Laminin and MMP-9 were analyzed by immunoblotting using rabbit pan-laminin (pan-Ln) and MMP-9 antibodies (from Sigma (St. Louis, Mo.) and Calbiochem (La Jolla, Calif.), respectively), followed by peroxidase-conjugated anti-rabbit IgG antibody. Peroxidase was visualized by enhanced chemiluminescence (Amersham Biosciences).

MMP-9 [3] = biological target: T2, MMP-9 (Mus musculus, UniProt P41245); experiment: MMP-9 activity in ischemic mouse brain after treatment in vivo (in situ zymography, gelatin zymography, Western blot); parameters: species or system C57BL/6J mice; settings: SB-3CT-treated mice, 2-hr MCA occlusion and 24-hr reperfusion
T2 construct: from tissue; host or cells: brain of C57BL/6J mice after MCA occlusion/reperfusion

MMP-9 [4] = experiment: as above; parameters: species or system C57BL/6J mice
[5] = Physiological variables and regional cerebral blood flow in MCAO mice; settings: for Ca^2+ / Glucose / MABP / Na^+ / PCO2 / PO2 / pH: mean ± SEM (n = 5); for regional cerebral blood flow (rCBF), laser Doppler flowmetry: MCAO and reperfusion; for pH: arterial blood
[6] = tested on: C57BL/6J mice, MCA occlusion/reperfusion; experiment: Transient focal cerebral ischemia (MCA occlusion/reperfusion): infarct volume and neurological deficits; type: in vivo
laminin = experiment: Laminin degradation in the ischemic hemisphere after MCAO/R (Western blot, immunostaining); type: in vivo, mouse; settings: for laminin degradation in the ischemic hemisphere (Western blot, 51 kDa fragment): SB-3CT-treated mice after transient MCAO/R
[7] = Stability of S-nitrosothiols (NAT conversion from DAN)
MMP-2 = biological target: T3, MMP-2 (Homo sapiens, UniProt P08253); settings: high-affinity site for TIMPs, Olson et al. 1997; cited from earlier work
T3 sequence (P08253 110-660): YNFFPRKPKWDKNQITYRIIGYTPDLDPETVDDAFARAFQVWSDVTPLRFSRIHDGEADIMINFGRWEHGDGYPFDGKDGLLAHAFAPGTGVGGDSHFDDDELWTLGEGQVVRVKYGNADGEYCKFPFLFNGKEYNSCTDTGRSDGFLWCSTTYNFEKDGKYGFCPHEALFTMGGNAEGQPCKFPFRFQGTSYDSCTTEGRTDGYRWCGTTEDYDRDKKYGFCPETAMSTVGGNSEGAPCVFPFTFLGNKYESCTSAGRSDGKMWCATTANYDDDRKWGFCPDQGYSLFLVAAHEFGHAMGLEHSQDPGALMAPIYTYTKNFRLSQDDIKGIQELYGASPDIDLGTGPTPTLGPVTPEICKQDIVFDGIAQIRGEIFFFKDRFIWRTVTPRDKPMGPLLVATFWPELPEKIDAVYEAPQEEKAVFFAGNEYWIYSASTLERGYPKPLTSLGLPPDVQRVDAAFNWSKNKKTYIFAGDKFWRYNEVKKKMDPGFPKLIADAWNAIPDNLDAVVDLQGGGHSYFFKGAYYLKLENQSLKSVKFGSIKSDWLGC

MMP-9 [8] = biological target: T1, MMP-9; settings: high-affinity site for TIMPs, Olson et al. 1997; cited from earlier work
Target sequence in this assay (P14780 107-707 limits assumed): as the sequence (P14780 107-707 limits assumed, species assumed) above

Sequence of R-proMMP-9 (P14780 20-444 limits assumed): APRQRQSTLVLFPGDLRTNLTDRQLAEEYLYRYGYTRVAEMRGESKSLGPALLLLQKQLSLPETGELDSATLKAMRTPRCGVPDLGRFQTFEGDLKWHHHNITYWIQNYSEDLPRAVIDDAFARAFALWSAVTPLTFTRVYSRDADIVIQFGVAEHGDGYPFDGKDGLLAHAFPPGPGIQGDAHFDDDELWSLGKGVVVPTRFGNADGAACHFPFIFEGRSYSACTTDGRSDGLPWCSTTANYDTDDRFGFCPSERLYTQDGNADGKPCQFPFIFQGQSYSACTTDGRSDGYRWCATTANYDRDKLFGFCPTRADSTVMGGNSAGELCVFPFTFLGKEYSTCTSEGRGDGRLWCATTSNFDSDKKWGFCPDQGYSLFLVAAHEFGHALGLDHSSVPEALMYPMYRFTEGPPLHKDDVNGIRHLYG

O=NO [acidified sodium nitrite, sodium nitrite]
conversion of R-proMMP-9 into the activated form (gelatin zymography) (R-proMMP-9): partial conversion

CNC(=O)[C@H](Cc1c[nH]c2ccccc12)NC(=O)[C@@H](CC(=O)NO)CC(C)C [GM6001]
neuronal apoptosis (cerebrocortical neurons): abrogated the effect; also recorded: blocked the neuronal cell death | MMP gelatinolytic activity in the ischemic cortex (in situ zymography) [1]: reduced; also recorded: abrogated; also recorded: can prevent activation of MMP-9 | degradation of neuronal laminin by activated MMP-9 (MMP-9 [2]): significantly reduced laminin degradation; also recorded: inhibited MMP-9 proteolysis of neuronal laminin

O=S(=O)(CC1CS1)c1ccc(Oc2ccccc2)cc1 (stereo not shown) [Compound 1, (4-Phenoxyphenylsulfonyl)methylthiirane]
active MMP-9 in ischemic brain (gelatin zymography, Western blot) (MMP-9 [3]; listed as SB3CT): attenuated the increase; also recorded: can prevent activation of MMP-9 | proMMP-9 in ischemic brain (gelatin zymography, Western blot) (MMP-9 [3]; listed as SB3CT): attenuated the increase | active MMP-9 in ischemic brain (gelatin zymography, Western blot) (MMP-9 [3]; listed as SB-3CT): attenuated the increase; also recorded: significantly decreased | proMMP-9 in ischemic brain (gelatin zymography, Western blot) (MMP-9 [3]; listed as SB-3CT): attenuated the increase; also recorded: also decreased | MMP gelatinolytic activity in the ischemic region (in situ zymography, deconvolution microscopy) (MMP-9 [4]; SB-3CT-treated mice vs vehicle-treated control, after MCAO/reperfusion): significantly reduced | Ca^2+ ([5]; After MCAO): 1.100 ± 0.074 mmol/L | Glucose ([5]; After MCAO): 154.3 ± 12.6 mg/dL | MABP ([5]; After MCAO): 76.12 ± 2.89 mmHg | Na^+ ([5]; After MCAO): 157.7 ± 2.0 mmol/L | PCO2 ([5]; After MCAO): 43.90 ± 5.28 mmHg | PO2 ([5]; After MCAO): 245.4 ± 24.0 mmHg | Ca^2+ ([5]; Before MCAO): 1.150 ± 0.021 mmol/L | Glucose ([5]; Before MCAO): 160.7 ± 13.2 mg/dL | MABP ([5]; Before MCAO): 78.68 ± 3.17 mmHg | Na^+ ([5]; Before MCAO): 155.7 ± 1.8 mmol/L | PCO2 ([5]; Before MCAO): 40.70 ± 7.828 mmHg | PO2 ([5]; Before MCAO): 230.8 ± 31.7 mmHg | Ca^2+ ([5]; During MCAO): 1.117 ± 0.081 mmol/L | Glucose ([5]; During MCAO): 162.70 ± 13.3 mg/dL | MABP ([5]; During MCAO): 79.49 ± 3.48 mmHg | Na^+ ([5]; During MCAO): 157.20 ± 0.5 mmol/L | PCO2 ([5]; During MCAO): 44.95 ± 14.55 mmHg | PO2 ([5]; During MCAO): 214.5 ± 10.3 mmHg | regional cerebral blood flow (rCBF), laser Doppler flowmetry ([5]; vs vehicle-treated controls, listed as SB3CT): no significant differences; also recorded: unaffected | regional cerebral blood flow (rCBF), laser Doppler flowmetry ([5]; vs vehicle-treated controls, listed as SB-3CT): no significant differences | pH ([5]; After MCAO): 7.170 ± 0.027 | pH ([5]; Before MCAO): 7.313 ± 0.060 | pH ([5]; During MCAO): 7.106 ± 0.025 | physiological parameters including arterial blood gases and glucose ([5]; vs vehicle-treated controls): did not affect | infarct volume (TTC staining) ([6]; 25 mg/kg i.p. twice, 30 minutes before MCAO and 2 hours after MCAO, 2-hour MCAO, 24-hour reperfusion, vs vehicle, P<0.004 (FIG. 9), listed as SB3CT): decreases infarct volume; also recorded: protects the ischemic brain | infarct volume (TTC staining) ([6]; 25 mg/kg i.p., 24 h after reperfusion, vs vehicle-treated controls, p<0.001 (FIG. 14C)): decreased infarct volume | infarct volume ([6]; 25 mg/kg i.p., administration 6 h after ischemia, compared with 55% in vehicle-treated animals): 40% | infarct volume ([6]; 25 mg/kg i.p., first injection 2 h postischemic, second 3 h later, 24 h after reperfusion): 30 % of control | infarct volume ([6]; 25 mg/kg i.p., preischemic injection (30 min before ischemia, second immediately before reperfusion), 24 h after reperfusion): 30 % of control | neurological behavioral score ([6]; 24 h after MCA occlusion/reperfusion, vs vehicle-treated controls, p<0.02 (FIG. 14D)): significantly improved neurological function | neurological behavioral outcomes (deficit score 0-4) ([6]; 24 hours after focal MCAO and reperfusion, vs vehicle, P<0.01 (FIG. 9C), listed as SB3CT): significantly reduced neurological deficit outcomes; also recorded: improved | behavioral scores (five-point scale) ([6]; treated 2 h after ischemia, 24 h after reperfusion): significant improvement in behavioral scores | behavioral scores (five-point scale) ([6]; treated before ischemia, 24 h after reperfusion): significant improvement in behavioral scores | laminin degradation in the ischemic hemisphere (Western blot, 51 kDa fragment) (laminin; listed as SB3CT): attenuated laminin degradation products | laminin degradation in the ischemic hemisphere (Western blot, 51 kDa fragment) (laminin; listed as SB-3CT): decreased laminin degradation; also recorded: reduced

O=[N+]([O-])c1cccc2c(Br)n[nH]c12 [3-bromo-7-nitroindazole, reference compound]
MMP activity in the ischemic cortex (in situ zymography) (MMP-9 [4]; 30 mg/kg body weight i.p. prior to ischemia, wild-type mice): abrogated | laminin degradation in the ischemic cortex (laminin immunoreactivity) (laminin; wild-type mice treated with nNOS inhibitor, after MCA occlusion/reperfusion): attenuated; also recorded: blockage of laminin degradation

c1cnc2c(c1)ccc1cccnc12 [1,10-phenanthroline]
MMP gelatinolytic activity in the ischemic cortex (in situ zymography) [1]: reduced; also recorded: abrogated | MMP gelatinolytic activity in the ischemic cortex (in situ zymography) ([1]; listed as 1/10-phenanthroline): can prevent activation of MMP-9

N[C@@H](CSN=O)C(=O)O [SNOC, S-nitrosocysteine]
conversion of R-proMMP-9 into the activated form (gelatin zymography) (R-proMMP-9; R-proMMP-9 100 ng/ml, 200 μM agent, 18 hours, room temperature): partial conversion | initial velocity of R-proMMP-9 activation (R-proMMP-9; cleavage of synthetic fluorogenic peptide substrate): 0.88 µM/h | half-life at 200 μM [7]: < 10 min | decayed ([7]; within 15 min of incubation): over 95%

O=S(=O)(CCC1CO1)c1ccc(Oc2ccccc2)cc1 (stereo not shown) [Compound 5, 2-(4-Phenoxyphenylsulfonyl)ethyloxirane]
melting point: 75 to 77 °C

TIMP-1: endogenous cellular protein inhibitor of MMPs (tissue inhibitor of metalloproteinases)
Ki (MMP-2): 29 ± 5 nM | Ki (MMP-9 [8]): 24 ± 4 nM
